Values joined by “and” are separate entries in the source; they are usually repeats but may differ in a detail not shown here. Identical values can stand only once. Like-named read-outs stand apart in the source and are kept apart here.
Experiments:
TA104 (pMOL890) = conditions: M9 medium saturated with 0.1% of the PAH, degrading strain, samples every 3 days
E. coli (sfiA-lacZ) = conditions: cited from earlier work; for MINIMAL DETECTED CONCENTRATION (MDC): literature values
[1] = tested on: TA 98 and TA104 strains containing pMOL1067 or pMOL1068
S. typhimurium = conditions: cited from earlier work
[2] = tested on: novel biosensor systems in E. coli and in S. typhimurium strains; assay: Subject SOS promoter-lux systems (general statements); conditions: agents known to give false negative results in the SOS chromotest and the Ames test
[3] = tested on: S. typhimurium TA104 containing pMOL1068; conditions: TA104 pMOL1068
[4] = tested on: S. typhimurium TA104 containing pMOL1066; conditions: TA104 pMOL1066
[5] = tested on: S. typhimurium TA104 containing pMOL1067; conditions: TA104 pMOL1067
[6] = tested on: S. typhimurium TA98 containing pMOL890; conditions: TA98 pMOL890
[7] = tested on: S. typhimurium TA98 containing pMOL1067; conditions: TA98 pMOL1067
[8] = tested on: S. typhimurium TA104 containing pMOL890; conditions: TA104 pMOL890
[9] = tested on: TA98 and TA104 strains containing pMOL890, pMOL1067 or pMOL1068; assay: Test with the TA98 and TA104 strains containing pMOL890, pMOL1067 or pMOL1068
[10] = tested on: S. typhimurium TA104 containing pMOL1069; conditions: TA104 pMOL1069
[11] = tested on: S. typhimurium TA98 containing pMOL1068; conditions: TA98 pMOL1068
[12] = tested on: S. typhimurium TA1538* containing pMOL890
[13] = tested on: S. typhimurium TA100* containing pMOL890
[14] = tested on: S. typhimurium TA104* containing pMOL890
[15] = tested on: TA98 and TA104 containing pMOL1067; assay: Induction kinetics with pMOL1067; assay type: cell-based, S. typhimurium
Method: The reaction of the different constructs when more than one genotoxic product is present in the test sample. was examined. This is an important aspect, since environmental samples often contain more than one genotoxic pollutant. Also in this regard many pharmaceutical products that have to be tested for genotoxicity can be a combination of different active genotoxic substances (e.g. anticancer or anti AIDS drugs). The experiments were performed with TA98 and TA104 containing either pMOL1067 or pMOL890. These two constructs were chosen since they show similar induction kinetics and the best signal/noise ratio's in S. typhimurium (see FIG. 7 and FIG. 8). As test products, several combinations of MMS and novobiocine were taken. These products were used since they were found by us to have different induction kinetics (e.g., with pMOL1067 MMS gives a maximum after 2 hours, while the maximal signal/noise ratio with novobiocine is observed after 4 hours).

[16] = tested on: S. typhimurium TA98* containing pMOL890
[17] = tested on: S. typhimurium TA1535* containing pMOL890
[18] = TA 98 and TA104 strains containing pMOL1067 or pMOL1068

For c1ccc2c(c1)-c1cccc3cccc-2c13 [Fluoranthene], the “genotoxicity during bacterial degradation of the PAH” value (TA104 (pMOL890)) is given as “an increase of genotoxicity”, the “SOS (result)” value (E. coli (sfiA-lacZ)) is given as “pos” and the “OUTCOME (genotoxicity, final outcome)” value [1] is given as “pos”. The “AMES (result)” value (S. typhimurium) was “pos”.

For OO [H2O2, hydrogen peroxide], the “result in the novel systems according to the invention” value (“result in the novel systems according” for short) [2] was “positive”, the “MINIMAL DETECTED CONCENTRATION (MDC)” value [3] was 11.8 nmol/assay and the “MINIMAL DETECTED CONCENTRATION (MDC)” value [4] was 11.8 nmol/assay. The “MINIMAL DETECTED CONCENTRATION (MDC)” value [5] was 11.8 nmol/assay, the “MINIMAL DETECTED CONCENTRATION (MDC)” value [6] was 8.5 nmol/assay and the “SOS (result)” value (E. coli (sfiA-lacZ); SOS chromotest, Table 3) was “pos”. For the same compound, the “MINIMAL DETECTED CONCENTRATION (MDC)” value (E. coli (sfiA-lacZ); SOS chromotest) was 23 nmol/assay, the “MINIMAL DETECTED CONCENTRATION (MDC)” value [7] was 1.5 nmol/assay and the “OUTCOME (genotoxicity, final outcome)” value [1, 18] was “pos”. For the same compound, the “AMES (result)” value (S. typhimurium) was “neg”, the “MINIMAL DETECTED CONCENTRATION (MDC)” value (S. typhimurium) was “neg” and the “result in the Ames test” value (S. typhimurium) was “False-negative”. The “MINIMAL DETECTED CONCENTRATION (MDC)” value [8] was 3.8 nmol/assay, the “result in the test (genotoxicity)” value [9] was “positive” and the “MINIMAL DETECTED CONCENTRATION (MDC)” value [10] was 5.9 nmol/assay. The “MINIMAL DETECTED CONCENTRATION (MDC)” value [11] was 1.5 nmol/assay.

In the case of COS(C)(=O)=O [MMS, Methylmethanesulphonate], the “Number of His^+ revertants” value ([12]; MMS 0.1 μl) is reported as 36 and 28, the “Number of His^+ revertants” value ([12]; MMS 0.2 μl) is reported as 28 and 27 and the “Number of His^+ revertants” value ([12]; MMS 1 μl) is reported as 27 and 29. For the same compound, the “MINIMAL DETECTED CONCENTRATION (MDC)” value [3] was 7.3 nmol/assay, the “Conclusion (Ames test)” value (S. typhimurium TA104) was “+” and the “MINIMAL DETECTED CONCENTRATION (MDC)” value [4] was 7.3 nmol/assay. For the same compound, the “Conclusion (Ames test)” value (S. typhimurium TA98) was “−”, the “MINIMAL DETECTED CONCENTRATION (MDC)” value [5] was 7.3 nmol/assay and the “MINIMAL DETECTED CONCENTRATION (MDC)” value [6] was 7.3 nmol/assay. The “Number of His^+ revertants” value ([13]; MMS 0.1 μl) was 160 and 152, the “Number of His^+ revertants” value ([13]; MMS 0.2 μl) was 242 and 314 and the “Number of His^+ revertants” value ([13]; MMS 1 μl) was 536 and 528. The “SOS (result)” value (E. coli (sfiA-lacZ); SOS chromotest, Table 3) was “pos”, the “MINIMAL DETECTED CONCENTRATION (MDC)” value (E. coli (sfiA-lacZ); SOS chromotest) was 20 nmol/assay and the “Conclusion (Ames test)” value (S. typhimurium TA1538) was “−”. The “Number of His^+ revertants” value ([14]; MMS 0.1 μl) was 224 and 218, the “Number of His^+ revertants” value ([14]; MMS 0.2 μl) was 428 and 325 and the “Number of His^+ revertants” value ([14]; MMS 1 μl) was 672 and 724. For the same compound, the “MINIMAL DETECTED CONCENTRATION (MDC)” value [7] was 7.3 nmol/assay, the “OUTCOME (genotoxicity, final outcome)” value [1, 18] was “pos” and the “Number of His^+ revertants” value (S. typhimurium TA100; MMS 0.1 μl) was 344 and 392. The “Number of His^+ revertants” value (S. typhimurium TA100; MMS 0.2 μl) was 604 and 560, the “Number of His^+ revertants” value (S. typhimurium TA100; MMS 1 μl) was 1120 and 1282 and the “AMES (result)” value (S. typhimurium) was “pos”. For the same compound, the “MINIMAL DETECTED CONCENTRATION (MDC)” value (S. typhimurium) was 60 nmol/assay, the “MINIMAL DETECTED CONCENTRATION (MDC)” value [8] was 7.3 nmol/assay and the “MINIMAL DETECTED CONCENTRATION (MDC)” value [10] was 7.3 nmol/assay. For the same compound, the “time of maximal signal/noise ratio” value [15] was 2 h, the “Number of His^+ revertants” value (S. typhimurium TA1535; MMS 0.1 μl) was 27 and 18 and the “Number of His^+ revertants” value (S. typhimurium TA1535; MMS 0.2 μl) was 23 and 24. For the same compound, the “Number of His^+ revertants” value (S. typhimurium TA1535; MMS 1 μl) was 27 and 38, the “MINIMAL DETECTED CONCENTRATION (MDC)” value [11] was 7.3 nmol/assay and the “Number of His^+ revertants” value ([16]; MMS 0.1 μl) was 25 and 27. For the same compound, the “Number of His^+ revertants” value ([16]; MMS 0.2 μl) was 26 and 28, the “Number of His^+ revertants” value ([16]; MMS 1 μl) was 22 and 27 and the “Number of His^+ revertants” value ([17]; MMS 0.1 μl) was 32. The “Number of His^+ revertants” value ([17]; MMS 0.2 μl) was 24 and the “Number of His^+ revertants” value ([17]; MMS 1 μl) was 29 and 26.

For c1ccc2c(c1)ccc1ccccc12 [Phenanthrene], the “result in the novel systems according” value [2] is listed as “positive”, the “genotoxicity during bacterial degradation of the PAH” value (TA104 (pMOL890)) is listed as “an increase followed by a decrease in genotoxicity” and the “SOS (result)” value (E. coli (sfiA-lacZ); SOS chromotest, Table 3) is listed as “pos”. The “OUTCOME (genotoxicity, final outcome)” value [1, 18] was “pos”, the “AMES (result)” value (S. typhimurium; Ames test, Table 3) was “neg” and the “result in the Ames test” value (S. typhimurium; text b127) was “False-negative”. The “result in the test (genotoxicity)” value [9] was “positive”.

With c1ccc2c(c1)Cc1ccccc1-2 [fluorene] the “genotoxicity during bacterial degradation of the PAH” value (TA104 (pMOL890)) was “no significant increase in genotoxicity”.

For CO[C@@H]1[C@@H](OC(N)=O)[C@@H](O)[C@H](Oc2ccc3c(O)c(NC(=O)c4ccc(O)c(CC=C(C)C)c4)c(=O)oc3c2C)OC1(C)C [novobiocine], the “result in the novel systems according” value [2] was “positive”, the “MINIMAL DETECTED CONCENTRATION (MDC)” value [3] was 1.26 nmol/assay and the “MINIMAL DETECTED CONCENTRATION (MDC)” value [4] was 1.26 nmol/assay. The “MINIMAL DETECTED CONCENTRATION (MDC)” value [5] was 0.32 nmol/assay, the “MINIMAL DETECTED CONCENTRATION (MDC)” value [6] was 0.57 nmol/assay and the “SOS (result)” value (E. coli (sfiA-lacZ); SOS chromotest, Table 3) was “neg”. For the same compound, the “MINIMAL DETECTED CONCENTRATION (MDC)” value (E. coli (sfiA-lacZ); SOS chromotest) was “neg”, the “result in the SOS chromotest” value (E. coli (sfiA-lacZ); text b126) was “negative” and the “MINIMAL DETECTED CONCENTRATION (MDC)” value [7] was 0.079 nmol/assay. For the same compound, the “OUTCOME (genotoxicity, final outcome)” value [1, 18] was “pos”, the “MINIMAL DETECTED CONCENTRATION (MDC)” value (S. typhimurium; AMES, literature values, pos/neg where MDC could not be calculated) was “pos” and the “AMES (result)” value (S. typhimurium; Ames test, Table 3) was “pos”. For the same compound, the “MINIMAL DETECTED CONCENTRATION (MDC)” value [8] was 1.26 nmol/assay, the “result in the test (genotoxicity)” value [9] was “positive” and the “MINIMAL DETECTED CONCENTRATION (MDC)” value [10] was 0.32 nmol/assay. For the same compound, the “time of maximal signal/noise ratio” value [15] was 4 h and the “MINIMAL DETECTED CONCENTRATION (MDC)” value [11] was 0.63 nmol/assay.

Reference: patent US6521751B1, “Recombinant nucleic acid sequences and methods for determining both genotoxicity and mutagenicity of a sample and the kinetics of the genotoxicity” (Vlaamse Instelling voor Technologisch Onderzoek (VITO), priority 1998, dated 2003)
